Each structure is given as a SMILES string.

Chain of CDK12/CycK (Q9NYV4 with tags, fused parts or gaps): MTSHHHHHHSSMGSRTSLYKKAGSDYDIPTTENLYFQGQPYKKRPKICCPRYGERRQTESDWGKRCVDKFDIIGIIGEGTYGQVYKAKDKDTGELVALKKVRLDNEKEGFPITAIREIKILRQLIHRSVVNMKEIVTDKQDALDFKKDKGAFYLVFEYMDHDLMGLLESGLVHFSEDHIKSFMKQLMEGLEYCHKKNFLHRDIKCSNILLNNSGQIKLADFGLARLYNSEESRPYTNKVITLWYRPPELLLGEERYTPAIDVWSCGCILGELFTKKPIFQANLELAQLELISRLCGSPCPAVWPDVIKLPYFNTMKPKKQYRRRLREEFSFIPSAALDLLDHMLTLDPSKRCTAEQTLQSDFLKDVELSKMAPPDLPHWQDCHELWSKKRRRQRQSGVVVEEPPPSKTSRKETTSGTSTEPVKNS
Chain of CDK12/CycK (O75909 1-300 partner limits assumed): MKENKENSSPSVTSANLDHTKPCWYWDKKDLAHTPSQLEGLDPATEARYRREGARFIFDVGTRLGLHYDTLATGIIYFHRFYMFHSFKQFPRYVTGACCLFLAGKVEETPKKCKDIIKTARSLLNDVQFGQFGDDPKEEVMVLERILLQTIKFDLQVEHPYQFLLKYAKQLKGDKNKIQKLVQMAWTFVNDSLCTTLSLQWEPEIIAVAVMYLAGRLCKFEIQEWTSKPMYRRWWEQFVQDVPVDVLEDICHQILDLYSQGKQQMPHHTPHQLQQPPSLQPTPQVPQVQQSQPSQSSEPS

The first assay concerns the target CDK12/CycK (Homo sapiens, UniProt Q9NYV4). Briefly: CDK12/CycK high ATP kinase assay (TR-FRET, 2 mM ATP). In kind it is biochemical. The note with it: 2 mM ATP (high ATP); median; read-out: CDK12/CyclinK, 2 mM ATP (high ATP), IC50-[mol/l] (median). In short, it runs like this: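 Read-out is TR-FRET (Eu-anti-rabbit IgG, anti-phospho-c-Myc Ser62 antibody, streptavidin-XL665) after EDTA stop. Reaction ran 60 min at 22 °C using 1 µM biotin-peptide and high ATP (2 mM) with roughly 0.75 nM recombinant CDK12/CycK, after 15 min compound pre-binding; normalised emission ratios yield IC50.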
Take `CC(C)c1cnn2c(NCc3nc4ccccc4[nH]3)nc(N3CCOCC3)nc12` [Example 1, N-[(1H-benzimidazol-2-yl)methyl]-2-(morpholin-4-yl)-8-(propan-2-yl)pyrazolo[1,5-a][1,3,5]triazin-4-amine]: the IC50 is 5970 nM.
Turning to `Fc1ccccc1-c1cnc(CNc2nc(N3CCOCC3)nc3c(Br)cnn23)[nH]1` [Example 86, 8-bromo-N-{[5-(2-fluorophenyl)-1H-imidazol-2-yl]methyl}-2-(morpholin-4-yl)pyrazolo[1,5-a][1,3,5]triazin-4-amine], the IC50 is 1890 nM.
`C[C@@H]1CN(c2nc(NCc3nnc(-c4ccccc4)[nH]3)n3ncc(Br)c3n2)C[C@H](C)O1` [Example 78, 8-bromo-2-[(2R,6S)-2,6-dimethylmorpholin-4-yl]-N-[(5-phenyl-4H-1,2,4-triazol-3-yl)methyl]pyrazolo[1,5-a][1,3,5]triazin-4-amine]: the IC50 came out at 726 nM.
For the molecule `Brc1cnn2c(NCc3ncc(-c4ccccn4)[nH]3)nc(N3CCOCC3)nc12` [Example 90, 8-bromo-2-(morpholin-4-yl)-N-{[5-(pyridin-2-yl)-1H-imidazol-2-yl]methyl}pyrazolo[1,5-a][1,3,5]triazin-4-amine], the IC50 came to 4420 nM.

The next assay relates to MDA-MB-231, human breast cancer cells. In words: Proliferation assay MDA-MB-231 (crystal violet, 4 days). In kind it is cell-based. The note with it: Homo sapiens, MDA-MB-231, 96 h, MDA-MB-231 cells, median, read-out: Prolif-MDA MB-231, IC50-[mol/l] (median). In a few lines: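 IC50 from a 4-parameter fit of crystal violet absorbance (595 nm), scaled between the day-of-dosing plate (0%) and vehicle cells (100%). MDA-MB-231 or CAL-120 cells were treated for 4 days with 0.01–10 micromol/L compound in 0.1% DMSO after 24 h attachment.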
In the case of `CC(C)c1cnn2c(NCc3nc4ccccc4[nH]3)nc(N3CCOC(C)(C)C3)nc12` [Example 12, N-[(1H-benzimidazol-2-yl)methyl]-2-(2,2-dimethylmorpholin-4-yl)-8-(propan-2-yl)pyrazolo[1,5-a][1,3,5]triazin-4-amine], the IC50 came out at 373 nM.
`CN1CCN(c2nc(NCc3nc4cc(C(F)(F)F)ccc4[nH]3)n3ncc(C4CC4)c3n2)CC1` [Example 313, 8-cyclopropyl-2-(4-methylpiperazin-1-yl)-N-{[5-(trifluoromethyl)-1H-benzimidazol-2-yl]methyl}pyrazolo[1,5-a][1,3,5]triazin-4-amine]: the IC50 came to 15.6 nM.
Regarding `CN1CCN(c2nc(NCc3nc4cc(Cl)c(Cl)cc4[nH]3)n3ncc(C4CC4)c3n2)CC1` [Example 305, 8-cyclopropyl-N-[(5,6-dichloro-1H-benzimidazol-2-yl)methyl]-2-(4-methylpiperazin-1-yl)pyrazolo[1,5-a][1,3,5]triazin-4-amine], the IC50 was 5.94 nM.
Turning to `CCc1cnn2c(NCc3nc4c(F)c(F)ccc4[nH]3)nc(N3CCN(C)CC3)nc12.O=CO` [Example 435, formic acid N-[(4,5-difluoro-1H-benzimidazol-2-yl)methyl]-8-ethyl-2-(4-methylpiperazin-1-yl)pyrazolo[1,5-a][1,3,5]triazin-4-amine], the IC50 came out at 4.25 nM.
With `CC(C)c1cnn2c(NCc3nc4ccccc4[nH]3)nc(N3CCOCC3)nc12` [Example 1, N-[(1H-benzimidazol-2-yl)methyl]-2-(morpholin-4-yl)-8-(propan-2-yl)pyrazolo[1,5-a][1,3,5]triazin-4-amine], the IC50 turned out to be 86.4 nM.
On to `Fc1ccc2[nH]c(CNc3nc(N4CCOCC4)nc4c(-c5cnn(C(F)F)c5)cnn34)nc2c1F` [Example 422, N-[(4,5-difluoro-1H-benzimidazol-2-yl)methyl]-8-[1-(difluoromethyl)-1H-pyrazol-4-yl]-2-(morpholin-4-yl)pyrazolo[1,5-a][1,3,5]triazin-4-amine], for which the IC50 stood at 20.1 nM.
Regarding `O[C@@H]1CCN(c2nc(NCc3nc4ccccc4[nH]3)n3ncc(Br)c3n2)C1` [Example 202, (3R)-1-(4-{[(1H-benzimidazol-2-yl)methyl]amino}-8-bromopyrazolo[1,5-a][1,3,5]triazin-2-yl)pyrrolidin-3-ol], the IC50 was 295 nM.

Source of the values: patent US20230117034A1, “PYRAZOLOTRIAZINES” (Bayer Aktiengesellschaft, priority 2019, published 2023).
